Test: xn = mol fraction of the nth substance listed
Settings: 100 kPa

CCCC[n+]1ccn(C)c1.[Cl-] + NCCO
viscosity [mPa·s]
Settings	293 K	298 K	303 K	303.1 K	313.1 K	323.1 K	333.1 K	333.2 K	343.2 K
x2 = 0	–	19	–	15.2	9.93	6.88	–	5.03	3.69
x2 = 0.5	–	134	–	–	–	36.7	–	–	17.9
x2 = 0.677	–	47.4	–	–	–	16.6	–	12	9.1
x2 = 0.8	36.2	28.1	22.4	–	14.9	10.5	7.41	–	5.58

— a compilation of properties of binary mixtures (doi:10.1039/c5cp04050g)
